Measured values: patent publication US20050137130A1, “Medical treatment” (priority 2001, published 2005)

How the values were obtained:
Assay type in all cases: cell-based
[1] = test system: Notch signalling from Jagged1 (A20-Jagged cells, human Jagged1); assay: Antagonism of A20-Jagged Notch signalling (N27#11 luciferase reporter); conditions: A20-Jagged cells 1×10^5 per well; IgG4 as control
Text: (§1) The IVS, IRES, Neo and pA elements were removed from plasmid pIRESneo2 (Clontech, USA) and inserted into a pUC cloning vector downstream of a chicken beta-actin promoter (eg see GenBank Accession No E02199). Mouse Delta-1 cDNA (eg see GenBank Accession No NM_007865) was inserted between the actin promoter and IVS elements and a sequence with multiple stop codons in all three reading frames was inserted between the Delta and IVS elements.
(§2) The resulting construct was transfected into A20 cells using electroporation and G418 to provide A20 cells expressing mouse Delta1 on their surfaces (A20-Delta).
Corresponding cells (A20-Jagged) were prepared using human Jagged1 cDNA (see e.g. GenBank Accession No U61276).
(§3) The procedure of Example was repeated using A20-Delta or A20-Jagged cells (1×10^5 per well) in place of CHO-Delta cells. IgG4 was used as a control.

[2] = test system: Notch signalling from Delta (A20-Delta cells, mouse Delta1); assay: Antagonism of A20-Delta Notch signalling (N27#11 luciferase reporter); conditions: A20-Delta cells 1×10^5 per well; IgG4 as control
Text: as §1, §2, §3

[3] = test system: Mouse CD4+T-cells; assay: ELISA assay for Notch signalling modulator activity in mouse CD4+ cells (IL-10, plate-bound hDelta1-IgG4Fc); conditions: all concentrations tested, added at start of culture, day 3
Procedure: Spleens were removed from female Balb/c mice 8-10 weeks old and passed through a […] cell strainer into 20 ml R10F medium (R10F-RPMI 1640 media (Gibco Cat No 22409) plus 2 mM L-glutamine, 50 μg/ml Penicillin, 50 μg/ml Streptomycin, 5×10^−5 M β-mercapto-ethanol in 10% fetal calf serum). The cell suspension was spun (1150 rpm 5 min) and the media removed.
The cells were incubated for 4 minutes with 5 ml ACK lysis buffer (0.15M NH4Cl, […], O. 1 mM Na2EDTA in double distilled water) per spleen (to lyse red blood cells). The cells were then washed once with R10F medium and counted. CD4+ cells were purified from the suspensions by positive selection on a Magnetic Associated Cell Sorter (MACS) column (Miltenyi Biotec, Bisley, UK: Cat No 130-042-401) using CD4 (L3T4) beads (Miltenyi Biotec Cat No 130-049-201), according to the manufacturer's directions. […]
Mouse CD4+T-cells (prepared as above) were cultured at 2×10^5/well on anti-CD3 coated plates with or without plate-bound hDelta1-IgG4Fc fusion protein (prepared as described above) and soluble anti-CD28. […] Soluble hDelta1-IgG4Fc fusion protein was added into culture at the start at the concentrations shown and IL-10 was measured in supernatants on day 3 by ELISA using antibody pairs from R & D Systems (Abingdon, UK).

**Q.** Which “inhibition of Notch signalling from Jagged1” value [1] does the source give for “hDelta1-IgG4Fc: fusion protein comprising the extracellular domain of human Delta1 fused to the Fc domain of human IgG4 (SEQ ID NO: 5)” here?
**A.** able to inhbit Notch signalling

**Q.** And the “inhibition of Notch signalling from Delta” value [2]?
**A.** able to inhbit Notch signalling

**Q.** What about the “effect of soluble protein on increased IL-10 release induced by plate-bound hDelta1-IgG4Fc” value [3] of the same substance?
**A.** substantially reversed
